Consider 20 molecules from patent US6878736B1, “Histamine H3 receptor ligands” (James Black Foundation Limited, priority 1998, dated 2005).

Counter-ions that a name gives are not always drawn.

Assay [1] has as its target T1, Histamine H3 receptor (Cavia porcellus, UniProt Q9JI35). In words: Histamine H3 radioligand binding assay, guinea pig cortex ([3H]-R-α-methylhistamine). The note with it: guinea pig cortex membranes, competition with 1 nM [3H]-R-α-methylhistamine; for Ki: read-out: pKi (Guinea pig cortex) (converted). Put shortly:
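Male Dunkin Hartley guinea pig cortical membranes incubated 165 min at 21±3 °C in 20 mM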

The target of assay [2] is T1, Histamine H3 receptor. In words: Histamine H3 functional assay, guinea pig ileum (ileal longitudinal muscle, myenteric plexus). The arrangement: species or system tissue. The note with it: antagonist affinity from rightward shift of R-(α)-methylhistamine E/[A] curves (Schild), typical variance ±0.15 log units; for Kb: read-out: pKb (Guinea pig ileum) (converted). Put shortly:
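Longitudinal muscle–myenteric plexus strips from male Dunkin-Hartley guinea pigs (250-300 g), Krebs-Henseleit buffer at 37±1° C, field-stimulated at 0.1 Hz, 0.5 msec, supramaximal voltage; isometric recording. Cumulative R-(α)-methylhistamine E/[A] curves as % inhibition of twitch height; antagonist affinity by Schild analysis of rightward shift.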

T1 sequence (Q9JI35 whole entry): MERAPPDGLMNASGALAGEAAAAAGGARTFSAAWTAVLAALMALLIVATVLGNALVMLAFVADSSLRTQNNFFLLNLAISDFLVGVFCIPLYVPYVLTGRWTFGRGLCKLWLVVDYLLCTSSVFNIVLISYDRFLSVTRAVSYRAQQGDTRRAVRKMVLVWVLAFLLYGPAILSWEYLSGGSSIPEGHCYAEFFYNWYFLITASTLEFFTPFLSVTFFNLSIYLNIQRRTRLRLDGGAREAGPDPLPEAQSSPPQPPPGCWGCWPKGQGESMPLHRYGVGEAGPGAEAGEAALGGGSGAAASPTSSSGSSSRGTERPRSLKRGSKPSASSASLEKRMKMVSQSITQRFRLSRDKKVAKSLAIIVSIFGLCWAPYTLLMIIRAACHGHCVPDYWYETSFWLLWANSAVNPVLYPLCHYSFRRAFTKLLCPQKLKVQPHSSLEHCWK

Regarding `Cl.Cl.N=C(NCCCCCCCN1CCCC1)NCC12CC3CC(CC(C3)C1)C2` [Example 32, N-Adamantan-1-yl-methyl-N′-(7-pyrrolidin-1-yl-heptyl)-guanidine bis-hydrochloride], the “pKi (Guinea pig cortex)” value in assay [1] was 8.5. In assay [2], the “pKb (Guinea pig ileum)” value turned out to be 8.0.

With `CN1CCC[C@H]1CCCN(C)S(=O)(=O)N(C)Cc1ccc(Cl)cc1` [Example 120, N-(4-Chlorobenzyl)-N,N′-dimethyl-N′-(3-(1-methyl-pyrrolidin-2S-yl)-propyl)-sulfamide], the Ki in assay [1] was 501 nM. Further, the Kb in assay [2] was 501 nM.

`N=C(NCCCC1CCCCC1)NCCCN1CCCC1` [Example 43, N-(3-Cyclohexyl-propyl)-N′-(3-pyrrolidin-1-yl-propyl)-guanidine bis-hydrochloride]: the Ki in assay [1] was 100 nM. Besides, the Kb in assay [2] was 200 nM.

In the case of `N=C(NCCCN1CCCC1)Nc1ccc(Cl)cc1` [Example 19, N-(4-Chlorophenyl)-N′-(3-pyrrolidin-1-yl-propyl)-guanidine], the Ki in assay [1] is 50.1 nM. Moreover, in assay [2], the Kb is 1000 nM.

For the molecule `N=C(NCCCCCN1CCCC1)N1CCc2ccccc2C1` [Example 51, N-(5-Pyrrolidin-1-yl-pentyl)-3,4-dihydro-1H-isoquinoline-2-carboxamidine bis-hydrochloride], the Ki in assay [1] was 7.94 nM. In addition, the Kb in assay [2] is 100 nM.

`CN(Cc1ccccc1)C(=N)NCCCCCN1CCCC1` [Example 50, N-Benzyl-N-methyl-N′-(5-pyrrolidin-1-yl-pentyl)-guanidine bis-hydrochloride]: in assay [1], the Ki is 15.8 nM. Also, in assay [2], the Kb was 316 nM.

For `O=S(=O)(NCCCCN1CCCC1)c1ccc2ccccc2c1` [Example 83, N-(4-Pyrrolidin-1-yl-butyl)-2-naphthalenesulfonamide], the Ki in assay [1] was 251 nM. Besides, in assay [2], the Kb was 631 nM.

With “N-Adamantan-1-yl-methyl-N′-(4-pyrrolidin-1-yl-butyl)-guanidine bis-hydrochloride [Example 29]”, the “pKi (Guinea pig cortex)” value in assay [1] is 8.4. Further, the “pKb (Guinea pig ileum)” value in assay [2] is 7.7.

For `CN1CCCC1CCCCNS(=O)(=O)Cc1ccc(Cl)cc1` (stereo not drawn) [Example 104, N-(4-(1-Methyl-pyrrolidin-2S-yl)-butyl)-(4-chlorophenyl)-methanesulfonamide], the Ki in assay [1] is 398 nM. For the same molecule, the Kb in assay [2] is 398 nM.

As for `N=C(NCCCCCN1CCCC1)NCc1ccc(Cl)cc1` [Example 18, N-(4-Chlorobenzyl)-N′-(5-pyrrolidin-1-yl-pentyl)-guanidine bis-hydrochloride], the Ki in assay [1] is 5.01 nM. The Kb in assay [2] is 50.1 nM.

As to `N=C(NCCCCN1CCCC1)NCCc1ccc(Cl)cc1` [Example 24, N-(2-(4-Chlorophenyl)ethyl)-N′-(4-pyrrolidin-1-yl-butyl)-guanidine bis-hydrochloride], the Ki in assay [1] was 6.31 nM. In assay [2], the Kb is 631 nM.

Turning to `O=S(=O)(NCCCCCN1CCCC1)NCc1ccc(Cl)cc1` [Example 141, N-(4-Chlorobenzyl)-N′-(5-pyrrolidin-1-yl-pentyl)-sulfamide], the Ki in assay [1] was 251 nM. Also, in assay [2], the Kb was 501 nM.

Regarding `N=C(N)N(CCCCCCN1CCCCC1)Cc1ccc(Cl)cc1` [Example 72, N-(4-Chlorobenzyl)-N-(6-piperidin-1-yl-hexyl)-guanidine bis-hydrochloride], in assay [1], the Ki was 5.01 nM. Further, the Kb in assay [2] is 3.16 nM.

`N=C(NCCCN1CCCC1)NCc1ccc(I)cc1` [Example 6, N-(4-Iodobenzyl)-N′-(3-pyrrolidin-1-yl-propyl)-guanidine bis-hydrochloride]: in assay [1], the Ki was 50.1 nM. The Kb in assay [2] was 398 nM.

As to `CN1CCC[C@H]1CCCNS(=O)(=O)NCc1ccc(Cl)cc1` [Example 107, N-(4-Chlorobenzyl)-N′-(3-(1-methyl-pyrrolidin-2S-yl)-propyl)-sulfamide], in assay [1], the Ki is 100 nM. Besides, the Kb in assay [2] was 158 nM.

Regarding `Cl.Cl.N=C(NCCCCN1CCCC1)NCc1ccc(-c2ccccc2)cc1` [Example 54, N-Biphenyl-4-yl-methyl-N′-(4-pyrrolidin-1-yl-butyl)-guanidine bis-hydrochloride], the “pKi (Guinea pig cortex)” value in assay [1] was found to be 7.3. The “pKb (Guinea pig ileum)” value in assay [2] is recorded as 7.1.

On to `N=C(N)N(CCCCCCN1CCCC1)Cc1ccccc1` [Example 73, N-Benzyl-N-(6-pyrrolidin-1-yl-hexyl)-guanidine bis-hydrochloride], for which, in assay [1], the Ki was 1.58 nM. Also, the Kb in assay [2] was 15.8 nM.

Turning to `CNC(=NCCCN1CCCC1)NCc1ccc(Cl)cc1` [Example 64, N-(4-Chlorobenzyl)-N′-methyl-N″-(3-pyrrolidin-1-yl-propyl)-guanidine], the Ki in assay [1] was 63.1 nM. Moreover, in assay [2], the Kb is 631 nM.

Turning to `CN1CCC[C@H]1CCCNS(=O)(=O)Nc1ccc(Cl)cc1` [Example 112, N-(4-Chlorophenyl)-N′-(3-(1-methyl-pyrrolidin-2S-yl)-propyl)-sulfamide], the Ki in assay [1] was 398 nM. For the same molecule, the Kb in assay [2] is 1580 nM.

Take `CNC(=O)CN(CCC[C@@H]1CCCN1C)S(=O)(=O)NCc1ccc(Cl)cc1` [Example 127, N-(4-Chlorobenzyl)-N′-(methylamidomethyl)-N′-(3-(1-methyl-pyrrolidin-2S-yl)propyl)-sulfamide]: the Ki in assay [1] was 2000 nM. Moreover, in assay [2], the Kb is 2000 nM.
